Reference: US8410310B2, “Trypsin-like serine protease inhibitors, and their preparation and use” (The Medicines Company (Leipzig) GmbH, priority 2006, dated 2013)
Like-named read-outs stand apart in the source and are kept apart here.

How the values were obtained:
[1] = system: t-PA-induced lysis of whole blood clots; test: Whole blood fibrinolysis assay (ROTEM, EXTEM with t-PA); assay type: cell-based, human; conditions: for IC50: Ly60, read-out: concentration resulting in 50% suppression of clot lysis (IC50, median [25%; 75% percentile]); for potency at inhibiting clot lysis relative to tranexamic acid: whole blood and plasma clot lysis, versus tranexamic acid
Method: Venous blood was withdrawn from the antecubital vein from healthy volunteers after written informed consent in accordance with local and federal guidelines with approval of the local review board (Ethikkommission, Klinikum Charité, Sauerbruchweg 5, 10117 Berlin). The blood was mixed with 0.11 mol/L sodium citrate (1:10). For ROTEM® analysis, whole citrated blood was used within 8 h after collection. Platelet-rich plasma (PRP) was prepared from citrated blood by centrifugation at 330×g for 10 min at room temperature, platelet-poor plasma (PPP) was collected following centrifugation at 1220×g for 12 min. The PRP was then adjusted to 3×10^8 platelets per mL using the autologous PPP. PRP was maintained at room temperature for less than 4 h before analysis. The remaining PPP was subjected to a high-speed centrifugation at 40,000×g for 30 min at 4° C. to remove any particulate material and was then stored at −70° C. until use.
The antifibrinolytic activity of Compound No. 3 in comparison to aprotinin and tranexamic acid was investigated in plasma and whole blood assays. In both assays, tissue factor was added to initiate rapid clot formation via the extrinsic pathway which produces a clot that remains stable for several hours under normal conditions. Supplementation of plasma or whole blood with tissue-type plasminogen activator (t-PA) before stimulation results in activation of endogenous plasminogen and thus fibrinolysis while the initial clot formation is not impaired. […] A final concentration of 50 U/mL and 100 U/mL in plasma and whole blood, respectively, was chosen to achieve complete lysis within about 60 min. In the presence of antifibrinolytics, clot lysis is delayed in a concentration-dependent manner.
Fibrinolysis in whole blood was studied with rotational thromboelastometry (Luddington, Clin. Lab. Haematol. 27: 81-90, 2005) using a computerized, multi-channel ROTEM® instrument (Pentapharm, Munich, Germany) (Ganter et al., Anesth. Analg. 106: 1366-75, 2008). Activation of test samples accelerated the measurement process and enhanced reproducibility compared with conventional thromboelastography. To allow observation of fibrinolysis, ROTEM® analysis with tissue factor activation (EXTEM) was modified through addition of t-PA (Nielsen et al. Blood Coagul. Fibrinolysis 17: 75-81, 2006). Citrated blood was pre-incubated at 37° C. for 5 min with test compound or saline before tissue factor, CaCl2 and t-PA (100 U/mL final concentration) were added to start the reaction. Fibrinolysis was determined by measuring loss of clot strength with time and was recorded as Ly60 (percentage reduction of the maximum amplitude at 60 min after the onset of clotting). In control samples without inhibitor, clots were lysed completely within 60 min, such that Ly60 was above 90%. By plotting Ly60 versus test compound concentration, IC50 values for each compound were calculated.

Human factor XIa = biological target: T1, Human factor XIa (Homo sapiens, UniProt P03951); test: Inhibition constants against purified human serine proteases: FXIa; assay type: biochemical
T1 construct: Human factor Xa, factor XIa, factor XIIa, thrombin, and plasma kallikrein were purchased; purchased Enzyme Research Laboratories (via Haemochrom, Essen)
Description: (§1) Aprotinin and tranexamic acid were purchased from SIGMA (Schnelldorf, Germany). Human factor Xa, factor XIa, factor XIIa, thrombin, and plasma kallikrein were purchased from Enzyme Research Laboratories, and human plasmin from Chromogenix (both via Haemochrom, Essen, Germany). Various synthetic peptide chromogenic substrates used for determination of inhibition constants were obtained from Pentapharm (Basel, Switzerland), Roche (Mannheim, Germany), and Chromogenix: Chromozyme PL for plasmin, S2302 for plasma kallikrein, Pefachrome FXa for factor Xa, Chromozym XII for FXIIa, Pefachrom tPA for thrombin, and Pefachrome PCa for factor XIa. […]
(§2) Inhibition of purified human serine proteases by Compound No. 3 and aprotinin was studied using the established methods described herein in Example 3 (i.e., Stürzebecher et al., 1997). […] Steady-state velocities of substrate conversion were obtained from progress curves generated by continuous monitoring of the absorbance at 405 nm with a microplate reader (Multiskan Ascent, Thermo Electron Corporation, Dreieich, Germany). […] Inhibition constants (Ki) were calculated from non-linear fits of individual data sets to the Michaelis-Menten equation for competitive inhibitors using an enzyme kinetic analysis software (SIGMA Plot® 9.0 Enzyme Kinetics Module, SSI, San Jose, Calif.). […]

plasma kallikrein = plasma kallikrein (Homo sapiens, UniProt P03952); test: Inhibition constants against purified human serine proteases: plasma kallikrein; assay type: biochemical; set-up: purchased Enzyme Research Lab. / Enzyme Research Laboratories
Description: as §1, §2

Thrombin = Thrombin (Homo sapiens, UniProt P00734); test: Inhibition constants against purified human serine proteases: thrombin; assay type: biochemical; set-up: Human factor Xa, factor XIa, factor XIIa, thrombin, and plasma kallikrein were purchased; purchased Enzyme Research Laboratories (via Haemochrom, Essen); conditions: 50 mM Tris-HCl pH 8.0, 154 mM NaCl, Pefachrom tPA
Description: as §1, §2

[2] = cited from earlier work
trypsin = conditions: background; cited from earlier work
[3] = human whole blood, t-PA 100 U/mL

T1 sequence (P03951 388-625 limits assumed): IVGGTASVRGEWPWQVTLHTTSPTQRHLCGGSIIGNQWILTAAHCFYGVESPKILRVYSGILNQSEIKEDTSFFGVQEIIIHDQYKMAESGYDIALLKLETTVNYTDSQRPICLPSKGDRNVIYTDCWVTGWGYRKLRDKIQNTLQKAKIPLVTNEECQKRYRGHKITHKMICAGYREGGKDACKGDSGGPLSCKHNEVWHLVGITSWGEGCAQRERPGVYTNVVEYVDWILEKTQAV
T1 sequence (P03951 19-387 partner limits assumed): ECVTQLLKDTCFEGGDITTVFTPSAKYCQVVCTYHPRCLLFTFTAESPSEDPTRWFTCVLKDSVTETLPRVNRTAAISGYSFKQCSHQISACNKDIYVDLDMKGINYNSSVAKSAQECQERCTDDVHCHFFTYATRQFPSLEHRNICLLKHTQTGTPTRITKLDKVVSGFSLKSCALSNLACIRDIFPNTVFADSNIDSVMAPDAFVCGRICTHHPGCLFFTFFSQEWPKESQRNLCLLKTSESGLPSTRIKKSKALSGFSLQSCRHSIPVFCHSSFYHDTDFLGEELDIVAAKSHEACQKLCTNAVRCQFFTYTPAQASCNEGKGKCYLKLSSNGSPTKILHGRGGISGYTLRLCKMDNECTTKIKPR
Chain of plasma kallikrein (P03952 391-638 limits assumed): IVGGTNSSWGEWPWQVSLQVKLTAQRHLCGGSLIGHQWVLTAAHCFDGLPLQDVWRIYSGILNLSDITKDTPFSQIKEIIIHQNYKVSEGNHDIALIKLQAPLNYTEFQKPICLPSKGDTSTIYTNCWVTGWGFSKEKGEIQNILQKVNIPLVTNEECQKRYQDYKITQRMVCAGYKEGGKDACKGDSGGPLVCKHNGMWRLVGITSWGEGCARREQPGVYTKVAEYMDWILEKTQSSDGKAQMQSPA
Chain of plasma kallikrein (P03952 20-390 partner limits assumed): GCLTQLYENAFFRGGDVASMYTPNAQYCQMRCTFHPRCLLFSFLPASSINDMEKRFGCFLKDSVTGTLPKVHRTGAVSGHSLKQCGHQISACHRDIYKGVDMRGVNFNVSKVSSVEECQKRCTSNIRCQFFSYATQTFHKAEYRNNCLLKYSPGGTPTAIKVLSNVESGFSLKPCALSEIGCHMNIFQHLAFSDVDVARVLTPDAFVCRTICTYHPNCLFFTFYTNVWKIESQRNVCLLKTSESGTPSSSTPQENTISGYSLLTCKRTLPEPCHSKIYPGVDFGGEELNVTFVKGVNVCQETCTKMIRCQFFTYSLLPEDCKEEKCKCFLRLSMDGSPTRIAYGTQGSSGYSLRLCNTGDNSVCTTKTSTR

Compound	IC50 [1, 3] [nM]	concentration that largely suppresses clot lysis / effective inhibition ([1]; whole blood ROTEM, t-PA-induced lysis) [nM]	potency at inhibiting clot lysis relative to tranexamic acid [1] [fold]	Ki (Human factor XIa; 50 mM Tris-HCl pH 8.0, 154 mM NaCl, Pefachrome PCa) [nM]	stronger inhibition of FXIa than aprotinin (Human factor XIa; versus aprotinin) [fold]	Ki (plasma kallikrein; 50 mM Tris-HCl pH 8.0, 154 mM NaCl, S2302) [nM]	stronger inhibition of plasma kallikrein than aprotinin (plasma kallikrein; versus aprotinin) [fold]	Ki (Thrombin) [nM]	IC50 of clot lysis expressed in KIU/mL ([1]; human whole blood, t-PA 100 U/mL, converted from nM) [KIU/mL]	risk of myocardial infarction and apoplectic stroke ([2]; by comparison with the control groups)	number of cases of kidney damage, making dialysis necessary ([2]; comparison with ε-aminocaproic acid or tranexamic acid (Mangano et al., 2006))	risk of an anaphylactic shock ([2]; first administration) [%]	risk of an anaphylactic shock ([2]; repeated administration within 200 days)	Ki (trypsin) [nM]
N=C(N)c1ccc(CNC(=O)[C@H](Cc2cccc(CN)c2)NC(=O)[C@@H](CCCc2ccccc2)NS(=O)(=O)Cc2cccc(C(=O)O)c2)cc1 [compound 3, 3-HOOC-Bzls-d-Ppg-Phe(3-Ame)-4-Amba×2 acetate]	150	600	~10	18 ± 1	100	0.019 ± 0.003	2000	1700 ± 200						
aprotinin	345		~10					76000	16	increased	doubling	< 0.1	4-5%	0.1
